Values joined by “and” are separate entries in the source; they are usually repeats but may differ in a detail not shown here. Identical values can stand only once.
Assay: molar heat capacity at constant pressure
Conditions: 101.33 kPa, Small (less than 1 g) adiabatic calorimetry

N.NS(=O)(=O)O [ammonium sulfamate]
Conditions | molar heat capacity at constant pressure
187.31 K, Crystal 2 | 118.02 J/K/mol
188.37 K, Crystal 2 | 118.34 J/K/mol
189.42 K, Crystal 2 | 118.66 J/K/mol
190 K, Crystal 2 | 119.06 J/K/mol
190.47 K, Crystal 2 | 118.99 J/K/mol
191.52 K, Crystal 2 | 119.43 J/K/mol
192.57 K, Crystal 2 | 119.89 J/K/mol
193.62 K, Crystal 2 | 120.26 J/K/mol
194.67 K, Crystal 2 | 120.69 J/K/mol
195.72 K, Crystal 2 | 121.06 J/K/mol
196.77 K, Crystal 2 | 121.57 J/K/mol
197.82 K, Crystal 2 | 122.07 J/K/mol
198.87 K, Crystal 2 | 122.46 J/K/mol
199.92 K, Crystal 2 | 122.56 J/K/mol
200 K, Crystal 2 | 122.64 J/K/mol
200.85 K, Crystal 2 | 122.86 J/K/mol
201.65 K, Crystal 2 | 123.16 J/K/mol
202.45 K, Crystal 2 | 123.44 J/K/mol
203.24 K, Crystal 2 | 123.74 J/K/mol
204.05 K, Crystal 2 | 123.89 J/K/mol
204.85 K, Crystal 2 | 124.1 J/K/mol
205.65 K, Crystal 2 | 124.38 J/K/mol
206.45 K, Crystal 2 | 124.7 J/K/mol
207.25 K, Crystal 2 | 124.92 J/K/mol
208.05 K, Crystal 2 | 125.1 J/K/mol
208.86 K, Crystal 2 | 125.38 J/K/mol
209.66 K, Crystal 2 | 125.69 J/K/mol
210 K, Crystal 2 | 125.96 J/K/mol
210.46 K, Crystal 2 | 125.83 J/K/mol
211.26 K, Crystal 2 | 126.04 J/K/mol
212.07 K, Crystal 2 | 126.32 J/K/mol
212.87 K, Crystal 2 | 126.64 J/K/mol
213.68 K, Crystal 2 | 127 J/K/mol
214.48 K, Crystal 2 | 127.38 J/K/mol
215.28 K, Crystal 2 | 127.75 J/K/mol
216.09 K, Crystal 2 | 127.78 J/K/mol
216.9 K, Crystal 2 | 127.98 J/K/mol
217.7 K, Crystal 2 | 128.19 J/K/mol
218.51 K, Crystal 2 | 128.52 J/K/mol
219.31 K, Crystal 2 | 128.78 J/K/mol
220 K, Crystal 2 | 129.21 J/K/mol
220.12 K, Crystal 2 | 129.04 J/K/mol
220.93 K, Crystal 2 | 129.3 J/K/mol
221.73 K, Crystal 2 | 129.49 J/K/mol
222.54 K, Crystal 2 | 129.74 J/K/mol
223.35 K, Crystal 2 | 130.02 J/K/mol
224.16 K, Crystal 2 | 130.26 J/K/mol
224.97 K, Crystal 2 | 130.53 J/K/mol
225.78 K, Crystal 2 | 130.71 J/K/mol
226.59 K, Crystal 2 | 130.98 J/K/mol
227.4 K, Crystal 2 | 131.32 J/K/mol
228.21 K, Crystal 2 | 131.61 J/K/mol
229.02 K, Crystal 2 | 131.83 J/K/mol
229.83 K, Crystal 2 | 132.08 J/K/mol
230 K, Crystal 2 | 132.37 J/K/mol
230.64 K, Crystal 2 | 132.31 J/K/mol
231.45 K, Crystal 2 | 132.78 J/K/mol
232.27 K, Crystal 2 | 133.46 J/K/mol
233.08 K, Crystal 2 | 133.22 J/K/mol
233.89 K, Crystal 2 | 133.51 J/K/mol
234.71 K, Crystal 2 | 133.83 J/K/mol
235.52 K, Crystal 2 | 134.25 J/K/mol
236.33 K, Crystal 2 | 134.61 J/K/mol
237.15 K, Crystal 2 | 134.97 J/K/mol
237.96 K, Crystal 2 | 135.18 J/K/mol
238.78 K, Crystal 2 | 135.77 J/K/mol
239.59 K, Crystal 2 | 135.43 J/K/mol
240 K, Crystal 2 | 135.44 J/K/mol
240.41 K, Crystal 2 | 136.44 J/K/mol
241.22 K, Crystal 2 | 136.59 J/K/mol
242.04 K, Crystal 2 | 136.32 J/K/mol
242.86 K, Crystal 2 | 137.27 J/K/mol
243.68 K, Crystal 2 | 137.4 J/K/mol
244.44 K, Crystal 2 | 137.03 J/K/mol
244.5 K, Crystal 2 | 136.97 J/K/mol
244.81 K, Crystal 2 | 137.21 J/K/mol
244.94 K, Crystal 2 | 137.26 J/K/mol
245.31 K, Crystal 2 | 136.68 J/K/mol
245.38 K, Crystal 2 | 137.26 J/K/mol
245.44 K, Crystal 2 | 137.55 J/K/mol
245.94 K, Crystal 2 | 137.54 J/K/mol
245.96 K, Crystal 2 | 137.42 J/K/mol
246.13 K, Crystal 2 | 137.45 J/K/mol
246.46 K, Crystal 2 | 137.69 J/K/mol
246.53 K, Crystal 2 | 137.6 J/K/mol
246.95 K, Crystal 2 | 137.65 J/K/mol
246.96 K, Crystal 2 | 137.71 J/K/mol
247.11 K, Crystal 2 | 137.65 J/K/mol
247.46 K, Crystal 2 | 137.8 J/K/mol
247.68 K, Crystal 2 | 138 J/K/mol
247.77 K, Crystal 2 | 137.93 J/K/mol
247.97 K, Crystal 2 | 138.06 J/K/mol
248.25 K, Crystal 2 | 138.01 J/K/mol
248.47 K, Crystal 2 | 138.27 J/K/mol
248.59 K, Crystal 2 | 138.16 J/K/mol
248.83 K, Crystal 2 | 138.31 J/K/mol
248.98 K, Crystal 2 | 138.36 J/K/mol
249.41 K, Crystal 2 | 138.87 J/K/mol
249.42 K, Crystal 2 | 138.7 J/K/mol
249.48 K, Crystal 2 | 138.72 J/K/mol
249.98 K, Crystal 2 | 139.15 J/K/mol and 138.93 J/K/mol
250.24 K, Crystal 2 | 139.23 J/K/mol
250.49 K, Crystal 2 | 139.26 J/K/mol
250.56 K, Crystal 2 | 139.43 J/K/mol
250.99 K, Crystal 2 | 139.62 J/K/mol
251.06 K, Crystal 2 | 139.79 J/K/mol
251.14 K, Crystal 2 | 139.9 J/K/mol
251.5 K, Crystal 2 | 140.25 J/K/mol
251.71 K, Crystal 2 | 140.3 J/K/mol
251.88 K, Crystal 2 | 140.46 J/K/mol
252 K, Crystal 2 | 140.41 J/K/mol
252.28 K, Crystal 2 | 140.89 J/K/mol
252.51 K, Crystal 2 | 140.56 J/K/mol
252.7 K, Crystal 2 | 140.98 J/K/mol
252.86 K, Crystal 2 | 141.23 J/K/mol
253.02 K, Crystal 2 | 141.02 J/K/mol
253.43 K, Crystal 2 | 141.89 J/K/mol
253.52 K, Crystal 2 | 141.72 J/K/mol and 141.4 J/K/mol
254.01 K, Crystal 2 | 143.16 J/K/mol
254.03 K, Crystal 2 | 142.77 J/K/mol
254.34 K, Crystal 2 | 145.58 J/K/mol
254.54 K, Crystal 1 | 146.89 J/K/mol
254.58 K, Crystal 1 | 148.65 J/K/mol
255.05 K, Crystal 1 | 140.26 J/K/mol
255.16 K, Crystal 1 | 140.01 J/K/mol
255.17 K, Crystal 1 | 141.54 J/K/mol
255.56 K, Crystal 1 | 139.82 J/K/mol
255.74 K, Crystal 1 | 139.92 J/K/mol
256 K, Crystal 1 | 139.89 J/K/mol
256.07 K, Crystal 1 | 140.15 J/K/mol
256.32 K, Crystal 1 | 140.33 J/K/mol
256.58 K, Crystal 1 | 140.36 J/K/mol
256.83 K, Crystal 1 | 140.15 J/K/mol
256.9 K, Crystal 1 | 140.4 J/K/mol
257.09 K, Crystal 1 | 140.26 J/K/mol
257.48 K, Crystal 1 | 140.61 J/K/mol
257.6 K, Crystal 1 | 140.56 J/K/mol
257.65 K, Crystal 1 | 140.39 J/K/mol
258.06 K, Crystal 1 | 140.66 J/K/mol
258.1 K, Crystal 1 | 140.61 J/K/mol
258.48 K, Crystal 1 | 140.51 J/K/mol
258.61 K, Crystal 1 | 140.63 J/K/mol
258.65 K, Crystal 1 | 140.92 J/K/mol
259.12 K, Crystal 1 | 140.78 J/K/mol
259.23 K, Crystal 1 | 140.91 J/K/mol
259.3 K, Crystal 1 | 140.91 J/K/mol
259.63 K, Crystal 1 | 141.01 J/K/mol
259.81 K, Crystal 1 | 141.1 J/K/mol
260 K, Crystal 1 | 141.26 J/K/mol
260.12 K, Crystal 1 | 141.07 J/K/mol
260.15 K, Crystal 1 | 141.06 J/K/mol
260.39 K, Crystal 1 | 141.17 J/K/mol
260.66 K, Crystal 1 | 141.25 J/K/mol
260.95 K, Crystal 1 | 141.34 J/K/mol
260.97 K, Crystal 1 | 141.54 J/K/mol
261.17 K, Crystal 1 | 141.38 J/K/mol
261.55 K, Crystal 1 | 141.5 J/K/mol
261.68 K, Crystal 1 | 141.47 J/K/mol
261.77 K, Crystal 1 | 141.54 J/K/mol
262.13 K, Crystal 1 | 141.71 J/K/mol
262.19 K, Crystal 1 | 141.78 J/K/mol
262.61 K, Crystal 1 | 141.89 J/K/mol
262.71 K, Crystal 1 | 141.89 J/K/mol
262.73 K, Crystal 1 | 141.96 J/K/mol
263.3 K, Crystal 1 | 141.95 J/K/mol
263.44 K, Crystal 1 | 142.09 J/K/mol
264.27 K, Crystal 1 | 142.38 J/K/mol
265.1 K, Crystal 1 | 142.55 J/K/mol
265.93 K, Crystal 1 | 142.78 J/K/mol
266.76 K, Crystal 1 | 143.13 J/K/mol
267.59 K, Crystal 1 | 143.22 J/K/mol
268.42 K, Crystal 1 | 143.39 J/K/mol
269.25 K, Crystal 1 | 143.62 J/K/mol
270 K, Crystal 1 | 144.09 J/K/mol
270.08 K, Crystal 1 | 143.91 J/K/mol
270.91 K, Crystal 1 | 144.17 J/K/mol
271.74 K, Crystal 1 | 144.43 J/K/mol
272.58 K, Crystal 1 | 144.63 J/K/mol
273.41 K, Crystal 1 | 144.84 J/K/mol
274.25 K, Crystal 1 | 145.06 J/K/mol
275.08 K, Crystal 1 | 145.36 J/K/mol
275.94 K, Crystal 1 | 145.56 J/K/mol
276.77 K, Crystal 1 | 145.78 J/K/mol
277.6 K, Crystal 1 | 145.99 J/K/mol
278.44 K, Crystal 1 | 146.2 J/K/mol
279.28 K, Crystal 1 | 146.42 J/K/mol
280 K, Crystal 1 | 146.75 J/K/mol
280.11 K, Crystal 1 | 146.67 J/K/mol
280.95 K, Crystal 1 | 147.01 J/K/mol
281.79 K, Crystal 1 | 147.27 J/K/mol
282.63 K, Crystal 1 | 147.37 J/K/mol
283.47 K, Crystal 1 | 147.57 J/K/mol
284.3 K, Crystal 1 | 147.9 J/K/mol
285.15 K, Crystal 1 | 148.03 J/K/mol
285.99 K, Crystal 1 | 148.24 J/K/mol
286.83 K, Crystal 1 | 148.69 J/K/mol
287.67 K, Crystal 1 | 148.8 J/K/mol
288.49 K, Crystal 1 | 148.98 J/K/mol
289.33 K, Crystal 1 | 149.33 J/K/mol
290 K, Crystal 1 | 149.41 J/K/mol
290.17 K, Crystal 1 | 149.55 J/K/mol
291.01 K, Crystal 1 | 149.81 J/K/mol
291.85 K, Crystal 1 | 149.83 J/K/mol
292.69 K, Crystal 1 | 150.13 J/K/mol
293.53 K, Crystal 1 | 150.52 J/K/mol
294.38 K, Crystal 1 | 150.46 J/K/mol
295.22 K, Crystal 1 | 150.72 J/K/mol
296.07 K, Crystal 1 | 150.87 J/K/mol
296.92 K, Crystal 1 | 151.22 J/K/mol
297.77 K, Crystal 1 | 151.31 J/K/mol
298.15 K, Crystal 1 | 151.49 J/K/mol
298.61 K, Crystal 1 | 151.62 J/K/mol
299.46 K, Crystal 1 | 152.1 J/K/mol
300 K, Crystal 1 | 151.99 J/K/mol
300.74 K, Crystal 1 | 152.16 J/K/mol
302.38 K, Crystal 1 | 152.51 J/K/mol
304 K, Crystal 1 | 152.9 J/K/mol
305.63 K, Crystal 1 | 153.27 J/K/mol
307.25 K, Crystal 1 | 153.72 J/K/mol
308.87 K, Crystal 1 | 154.08 J/K/mol
310 K, Crystal 1 | 154.4 J/K/mol
310.45 K, Crystal 1 | 154.47 J/K/mol
312.03 K, Crystal 1 | 154.86 J/K/mol
313.62 K, Crystal 1 | 155.15 J/K/mol
315.2 K, Crystal 1 | 155.56 J/K/mol
316.77 K, Crystal 1 | 155.95 J/K/mol
318.35 K, Crystal 1 | 156.34 J/K/mol
319.87 K, Crystal 1 | 156.72 J/K/mol
320 K, Crystal 1 | 156.81 J/K/mol
321.41 K, Crystal 1 | 157.11 J/K/mol
322.95 K, Crystal 1 | 157.43 J/K/mol
324.49 K, Crystal 1 | 157.89 J/K/mol
325.96 K, Crystal 1 | 158.18 J/K/mol
327.48 K, Crystal 1 | 158.02 J/K/mol
328.97 K, Crystal 1 | 158.76 J/K/mol
330 K, Crystal 1 | 159.14 J/K/mol
330.46 K, Crystal 1 | 159.4 J/K/mol
331.95 K, Crystal 1 | 159.74 J/K/mol
333.42 K, Crystal 1 | 160.19 J/K/mol
334.89 K, Crystal 1 | 160.55 J/K/mol

Source: the NIST ThermoML archive (doi:10.1016/j.jct.2019.01.021)
